Assay results as given in US4385055A, “2-Acetyl-and 2-propionylpyridine thiosemicarbazones as antimalarials” (The United States of America as represented by the …, priority 1981, dated 1983).
Converted amounts (≈) assume the structure as drawn. Like-named read-outs stand apart in the source and are kept apart here.

Assays:
Assay type in all cases: cell-based
[1] = system: Mycobacterium smegmatis; assay: MIC against Mycobacterium smegmatis strains (Test 4); details: Mycolicibacterium smegmatis, read-out: Minimum Inhibitory Concentration
Description: Compounds were tested against four strains of Mycobacterium smegmatis. The test procedure used was as mentioned by N. E. Morrison [Int. J. of Leprosy 39:34-43 (1971)]. The strain numbers refer to Mycobacterium smegmatis ATCC 607, a DDS-resistant daughter strain, a Rifampin-resistant daughter strain, and a Clofazimine-resistant daughter strain, respectively.

[2] = system: Neisseria gonorrhoeae; assay: Agar dilution MIC, Neisseria gonorrhoeae isolates (Test 3); details: 24 h, read-out: Minimum Inhibitory Concentration
Description: Compounds were tested against six Neisseria gonorrhoeae isolates. The bacteria used were provided by the Department of Bacterial Diseases of the Walter Reed Army Institute of Research. The test procedure used was the agar dilution method in duplicate as outlined by J. C. Sherris on pages 411-412 (loc. cit.). GC Medium (Difco) with a 2% defined supplement added as described by D. S. Kellogg et al. [J. Bact. 85:1274-1279 (1963)] was used as the media. The compounds were dissolved in DMSO (1.0 mg/mL), diluted with GC broth (GC Medium without agar) to the appropriate concentration, and added to the GC Medium at 55°-56° C. The latter was then poured and allowed to solidify. A penicillin standard was also prepared with initial dilutions as described by J. C. Sherris followed by dilutions with GC broth and addition to the GC Medium at 55°-56° C. as above. The inoculum was 1:200 GC broth dilution of a suspension of colony isolates after the suspension was adjusted visually to the turbidity standard described by J. M. Matsen and A. L. Barr on page 422 in "Manual of Clinical Microbiology," 2nd ed., E. Lennette, E. H. Spaulding, and J. P. Truant, Ed. (American Society for Microbiology, Washington, D.C., 1974). The plates were inoculated with a replicator and incubated at 37° C. under 5-10% carbon dioxide.

[3] = system: Neisseria meningitidis; assay: Macro broth dilution MIC, Neisseria meningitidis isolates (Test 2); details: Neisseria meningitidis, 24 h, read after 24 hours, read-out: Minimum Inhibitory Concentration
Description: Compounds were tested against five isolates of Neisseria meningitidis. The bacterial isolates were provided by the Department of Bacterial Diseases of the Walter Reed Army Institute of Research. The test procedure used was the macro broth dilution method in duplicate outlined by J. C. Sherris on pages 414-415 (loc. cit.). The test compounds and controls were prepared as in Test 1 above. Ampicillin and penicillin standards were initially diluted as described by J. C. Sherris on pages 411-412 (loc. cit.) followed by dilution with Mueller-Hinton broth. The tubes were incubated at 37° C. under 5-10% carbon dioxide.

[4] = system: Mycobacterium intracellulare; assay: Broth dilution MIC, Mycobacterium intracellulare strains (Test 6); details: read-out: Minimum Inhibitory Concentration
[5] = system: Staphylococcus aureus; assay: Macro broth dilution MIC, Staphylococcus aureus isolates (Test 1); details: 24 h, read after 24 hours, read-out: Minimum Inhibitory Concentration
Description: Compounds were tested against five isolates of Staphylococcus aureus and five isolates of Group D Enterococcus. The bacteria used were isolated from patients at the Walter Reed Army Medical Center, Washington, D.C. The test procedure used was the macro broth dilution method in duplicate as outlined by J. C. Sherris on pages 414-415 in "Manual of Clinical Microbiology," 2nd ed., E. Lennette, E. H. Spaulding, and J. P. Truant, Ed. (American Society for Microbiology, Washington, D.C., 1974). Each compound was dissolved in DMSO (12.8 mg/mL) and then diluted with Mueller-Hinton broth to obtain the desired dilutions. Tubes containing the highest quantities of DMSO with no compound present were run as controls.

[6] = ATCC607, Mycobacterium smegmatis strain I (ATCC 607)
[7] = Mycobacterium smegmatis strain III (Rifampin-resistant daughter strain)
[8] = Neisseria gonorrhoeae isolate 135, read after 24 hours
[9] = Neisseria gonorrhoeae isolate 161, read after 24 hours
[10] = Neisseria gonorrhoeae isolate 278, read after 24 hours
[11] = Neisseria gonorrhoeae isolate 455, read after 24 hours
[12] = Neisseria gonorrhoeae isolate 456, read after 24 hours
[13] = Neisseria gonorrhoeae isolate 602, read after 24 hours
[14] = Mycobacterium smegmatis strain II (DDS-resistant daughter strain)
[15] = Mycobacterium smegmatis strain IV (Clofazimine-resistant daughter strain)

| MIC [2, 8] [mg/L] | MIC [2, 9] [mg/L] | MIC [2, 10] [mg/L] | MIC [2, 11] [mg/L] | MIC [2, 12] [mg/L] | MIC [2, 13] [mg/L] | Structure (SMILES) | MIC [1, 6] [mg/L] | MIC [1, 7] [mg/L] | MIC [1, 14] [mg/L] | MIC [1, 15] [mg/L] | also measured |
| --- | --- | --- | --- | --- | --- | --- | --- | --- | --- | --- | --- |
|  |  |  |  |  |  | CO[C@H]1/C=C/O[C@@]2(C)Oc3c(C)c(O)c4c(O)c(c(/C=N/N5CCN(C)CC5)c(O)c4c3C2=O)NC(=O)/C(C)=C\C=C\[C@H](C)[C@H](O)[C@@H](C)[C@@H](O)[C@@H](C)[C@H](OC(C)=O)[C@@H]1C [Rifampin, reference compound] | 1 (≈ 1.22 µM) | 250 (≈ 304 µM) |  |  |  |
| 0.008 (≈ 0.0305 µM) | 0.004 (≈ 0.0152 µM) | 0.008 (≈ 0.0305 µM) | 0.008 (≈ 0.0305 µM) | 0.008 (≈ 0.0305 µM) | 0.008 (≈ 0.0305 µM) | CC(=NNC(=S)N1CCCCC1)c1ccccn1 [GG, Piperidine-1-thiocarboxylic acid 2-[1-(2-pyridyl)ethylidene]hydrazide] |  |  |  |  |  |
|  |  |  |  |  |  | CC(=NNC(=S)N1CCC1)c1ccccn1 [FF, Azetidine-1-thiocarboxylic acid 2-[1-(2-pyridyl)ethylidene]hydrazide] | 2 (≈ 8.54 µM) | < 1 | 2 (≈ 8.54 µM) | < 1 |  |
| 0.031 (≈ 0.0913 µM) | < 0.008 | 0.031 (≈ 0.0913 µM) | 0.031 (≈ 0.0913 µM) | 0.016 (≈ 0.0471 µM) | 0.031 (≈ 0.0913 µM) | CC(=NNC(=S)N1CCN(c2ccccc2)CC1)c1ccccn1 [K, 1,4-Diaza-4-phenylcyclohexane-1-thiocarboxylic acid 2-[1-(2-pyridyl)ethylidene]hydrazide] |  |  |  |  | MIC ([3]; Neisseria meningitidis isolate 7957): 0.062 mg/L (≈ 0.183 µM); MIC ([3]; Neisseria meningitidis isolate 7990): 0.062 mg/L (≈ 0.183 µM); MIC ([3]; Neisseria meningitidis isolate 8005): 1 mg/L (≈ 2.95 µM); MIC ([3]; Neisseria meningitidis isolate 8006): 0.062 mg/L (≈ 0.183 µM); MIC ([3]; Neisseria meningitidis isolate 8011): 0.125 mg/L (≈ 0.368 µM) |
|  |  |  |  |  |  | CC(=NNC(=S)N1CCCCCCCCCCCC1)c1ccccn1 [Z, 1-Azacyclotridecane-1-thiocarboxylic acid 2-[1-(2-pyridyl)ethylidene]hydrazide] |  |  |  |  | MIC ([4]; Mycobacterium intracellulare strain I): 10 mg/L (≈ 27.7 µM); MIC ([4]; Mycobacterium intracellulare strain II): 1 mg/L (≈ 2.77 µM); MIC ([4]; Mycobacterium intracellulare strain III): 1 mg/L (≈ 2.77 µM); MIC ([4]; Mycobacterium intracellulare strain IV): 10 mg/L (≈ 27.7 µM); MIC ([4]; Mycobacterium intracellulare strain V): 10 mg/L (≈ 27.7 µM); MIC ([4]; Mycobacterium intracellulare strain VI): 10 mg/L (≈ 27.7 µM) |
|  |  |  |  |  |  | CC(=NNC(=S)N1CCN(c2ccccn2)CC1)c1ccccn1.Cl.Cl [W, 1,4-Diaza-4-(2-pyridyl)cyclohexane-1-thiocarboxylic acid 2-[1-(2-pyridyl)-ethylidene]hydrazide dihydrochloride] | 6 | 5 | 10 | 6 |  |
|  |  |  |  |  |  | CC(=NNC(=S)NCc1ccccc1C)c1ccccn1 [N, 2-Acetylpyridine 4-(2-methylbenzyl)-3-thiosemicarbazone] |  |  |  |  | MIC ([5]; Staphylococcus aureus isolate I): 2 mg/L (≈ 6.7 µM); MIC ([5]; Staphylococcus aureus isolate II): 2 mg/L (≈ 6.7 µM); MIC ([5]; Staphylococcus aureus isolate III): 2 mg/L (≈ 6.7 µM); MIC ([5]; Staphylococcus aureus isolate IV): 2 mg/L (≈ 6.7 µM); MIC ([5]; Staphylococcus aureus isolate V): 1 mg/L (≈ 3.35 µM) |
|  |  |  |  |  |  | C=CCNC(=S)NN=C(C)c1ccccn1 [A, 2-Acetylpyridine 4-allyl-3-thiosemicarbazone] | < 1 | < 1 | < 1 | < 1 |  |

| Structure (SMILES) | MIC [2, 8] [mg/L] | MIC [2, 9] [mg/L] | MIC [2, 10] [mg/L] | MIC [2, 11] [mg/L] | MIC [2, 12] [mg/L] | MIC [2, 13] [mg/L] | MIC [1, 6] [mg/L] | MIC [1, 7] [mg/L] | MIC [1, 14] [mg/L] | MIC [1, 15] [mg/L] | also measured |
| --- | --- | --- | --- | --- | --- | --- | --- | --- | --- | --- | --- |
| CC(=NNC(=S)N1CCCC1)c1ccccn1 [HH, 1-Azacyclopentane-1-thiocarboxylic acid 2-[1-(2-pyridyl)ethylidene]hydrazide] | 0.008 (≈ 0.0322 µM) | 0.004 (≈ 0.0161 µM) | 0.008 (≈ 0.0322 µM) | 0.008 (≈ 0.0322 µM) | 0.008 (≈ 0.0322 µM) | 0.008 (≈ 0.0322 µM) | 2 (≈ 8.05 µM) | 2 (≈ 8.05 µM) | 3 (≈ 12.1 µM) | 4 (≈ 16.1 µM) |  |
